The text below walks through data of patent publication US20100137275A1 (IPSEN PHARMA S.A.S., priority 2007, published 2010).

pIC50: −log10 of the molar value.

The target of data set [1] is T1, purified recombinant Cdc25-C enzyme (MBP-Cdc25C protein) (Homo sapiens, UniProt P30307).
T1 construct: made in house
T1 sequence (P30307 1-473): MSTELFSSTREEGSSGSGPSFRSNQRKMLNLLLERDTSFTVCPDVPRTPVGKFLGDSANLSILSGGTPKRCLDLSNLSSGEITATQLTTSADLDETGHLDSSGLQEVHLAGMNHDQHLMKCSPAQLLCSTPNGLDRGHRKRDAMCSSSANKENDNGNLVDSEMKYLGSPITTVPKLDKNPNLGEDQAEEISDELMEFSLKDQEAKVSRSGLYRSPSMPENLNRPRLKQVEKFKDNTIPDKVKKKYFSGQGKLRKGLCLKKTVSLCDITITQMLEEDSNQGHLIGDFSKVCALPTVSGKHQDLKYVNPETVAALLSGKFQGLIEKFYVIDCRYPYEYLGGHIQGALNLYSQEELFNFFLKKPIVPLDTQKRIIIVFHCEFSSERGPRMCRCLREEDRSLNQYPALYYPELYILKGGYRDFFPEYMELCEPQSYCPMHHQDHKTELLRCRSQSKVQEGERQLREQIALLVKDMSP
Briefly: Phosphatase activity of the purified recombinant Cdc25C enzyme (OMFP dephosphorylation, fluorescence). Format: biochemical. Particulars: OMFP 500 μM, 4 hours at 30° C. An outline of the steps:
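MBP-Cdc25C fusion protein in 50 mM Tris-HCl pH 8.2, 50 mM NaCl, 1 mM DTT, 20% glycerol; reaction started with 500 μM OMFP (final). Compounds tested at decreasing concentrations from 40 μM; 4 h at 30 °C, OMF fluorescence read at 475 nm. IC50 from three independent experiments by linear regression over the linear part of the sigmoid.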

Data set [2] has as its system Mia-PaCa2 (human pancreas cancer cells). Description: Anti-proliferative activity on Mia-Paca2 cell line (WST1 colorimetric test). The format is cell-based. Particulars: MIA PaCa-2, 96 h, 96 hours treatment, read-out: IC50 on proliferation of the Mia-Paca2 cell line. Here is the method:
By way of an example, the effect of treating two human cell lines Mia-Paca2 and DU145 with the compounds of the examples described hereinbefore will be studied. The cell lines DU145 (human prostate cancer cells) and Mia-PaCa2 (human pancreas cancer cells) were obtained from the American Tissue Culture Collection (Rockville, Md., USA). A 96-well plate was inoculated on day 0 with cells placed in 80 μl of Dulbecco's modified Eagle's medium (Gibco-Brl, Cergy-Pontoise, France) with 10% heat-inactivated foetal calf serum (Gibco-Brl, Cergy-Pontoise, France), 50000 units/1 of penicillin and 50 mg/l of streptomycin (Gibco-Brl, Cergy-Pontoise, France), and 2 mM of glutamine (Gibco-Brl, Cergy-Pontoise, France). The cells were treated on day 1 with increasing concentrations of each test compound up to 10 μM for 96 hours. At the end of this period, cell proliferation is quantified by means of a colorimetric test based on cleavage of the tetrazolium salt WST1 by the mitochondrial dehydrogenases in the viable cells, resulting in formation of formazan (Boehringer Mannheim, Meylan, France). These tests are performed in duplicate with 8 determinations per concentration tested. For each compound to be tested, the values within the linear part of the sigmoid curve were subjected to linear regression analysis and used to estimate the IC50 inhibitory concentration. The products are solubilised in dimethylsulfoxide (DMSO) at a concentration of 10^−2 M and used in culture with a final DMSO concentration of 0.1%.

For data set [3], the system named is DU145 (human prostate cancer cells). Briefly: Anti-proliferative activity on DU-145 cell line (WST1 colorimetric test). Format: cell-based. Particulars: DU-145, 96 h, 96 hours treatment, read-out: IC50 on the proliferation of the DU-145 cell line.

The molecule `CN(CCNC(=O)Nc1cccc2nsnc12)CCNc1cc(N2CCCC2)nc(N2CCCC2)n1` [Example 15, N-2,1,3-benzothiadiazol-4-yl-N′-{2-[{2-[(2,6-dipyrrolidin-1-ylpyrimidin-4-yl)amino]ethyl}(methyl)amino]ethyl}urea] had a melting point of 126 to 128 °C. For the same molecule, the pIC50 in data set [1] is not below 6.00. In data set [2], the pIC50 is not below 5.30. Further, in data set [3], the pIC50 was not below 5.30.
Molecule `CN(CCNC(=O)Nc1ccc(Cl)cc1)CCNc1cc(N2CCCC2)nc(N2CCCC2)n1` [Example 16, N-(4-chlorophenyl)-N′-{2-[{2-[(2,6-dipyrrolidin-1-ylpyrimidin-4-yl)amino]ethyl}(methyl)amino]ethyl}urea] gave a melting point of 71 to 73 °C. Further, the pIC50 in data set [1] is not below 6.00. Besides, the pIC50 in data set [2] is not below 5.30. Also, the pIC50 in data set [3] is not below 5.30.
For the molecule `CN(CCNC(=O)Nc1ccc(Cl)c(Cl)c1)CCNc1cc(N2CCCC2)nc(N2CCCC2)n1` [Example 17, N-(3,4-dichlorophenyl)-N′-{2-[{2-[(2,6-dipyrrolidin-1-ylpyrimidin-4-yl)amino]ethyl}(methyl)amino]ethyl}urea], the melting point was 138 to 139 °C. Moreover, the pIC50 in data set [1] was not below 6.00. The pIC50 in data set [2] is not below 5.30. Further, the pIC50 in data set [3] was not below 5.30.
`O=C(NCCCCCNc1cc(N2CCCC2)nc(N2CCCC2)n1)Nc1ccc(Cl)cc1` [Example 19, N-(4-chlorophenyl)-N′-{5-[(2,6-dipyrrolidin-1-ylpyrimidin-4-yl)amino]pentyl}urea] yielded a melting point of 192 to 193 °C. Besides, the pIC50 in data set [1] was not below 6.00. In data set [2], the pIC50 was not below 5.30. In addition, the pIC50 in data set [3] was not below 5.30.
On to `CN(CCNC(=S)Nc1ccc(S(=O)(=O)N2CCCCC2)cc1)CCNc1cc(N2CCCC2)nc(N2CCCC2)n1` [Example 27, N-{2-[{2-[(2,6-dipyrrolidin-1-ylpyrimidin-4-yl)amino]ethyl}(methyl)amino]ethyl}-N′-[4-(piperidin-1-ylsulfonyl)phenyl]thiourea], for which the melting point lay in the range of 120 to 122 °C. The pIC50 in data set [1] was not below 5.30. The pIC50 in data set [2] is not below 5.30. In data set [3], the pIC50 was not below 5.30.
Consider `CN(CCNC(=S)NCc1ccco1)CCNc1cc(N2CCCC2)nc(N2CCCC2)n1` [Example 29, N-{2-[{2-[(2,6-dipyrrolidin-1-ylpyrimidin-4-yl)amino]ethyl}(methyl)amino]ethyl}-N′-(2-furylmethyl)thiourea], for which the pIC50 in data set [1], in data set [2] and in data set [3] was not below 5.30 each time.
As for `COc1cc(NC(=S)NCCN(C)CCNc2cc(N3CCCC3)nc(N3CCCC3)n2)cc(OC)c1OC` [Example 38, N-{2-[{2-[(2,6-dipyrrolidin-1-ylpyrimidin-4-yl)amino]ethyl}(methyl)amino]ethyl}-N′-(3,4,5-trimethoxyphenyl)thiourea], the melting point fell in the range of 109 to 111 °C. Further, the pIC50 in data set [1] was not below 6.00. Also, in data set [2], the pIC50 is not below 5.30. The pIC50 in data set [3] was not below 5.30.
`CN(CCNC(=S)Nc1ccccc1F)CCNc1cc(N2CCCC2)nc(N2CCCC2)n1` [Example 42, N-{2-[{2-[(2,6-dipyrrolidin-1-ylpyrimidin-4-yl)amino]ethyl}(methyl)amino]ethyl}-N′-(2-fluorophenyl)thiourea]: the melting point fell in the range of 105 to 107 °C. In addition, the pIC50 in data set [1] was not below 5.30. The pIC50 in data set [2] was not below 5.30. Also, in data set [3], the pIC50 was not below 5.30.
Consider `CN(CCNC(=S)NCc1ccc(F)cc1)CCNc1cc(N2CCCC2)nc(N2CCCC2)n1` [Example 46, N-{2-[{2-[(2,6-dipyrrolidin-1-ylpyrimidin-4-yl)amino]ethyl}(methyl)amino]ethyl}-N′-(4-fluorobenzyl)thiourea], for which the melting point is 64 to 66 °C. The pIC50 in data set [1] was not below 6.00. In data set [2], the pIC50 was not below 5.30. For the same molecule, the pIC50 in data set [3] was not below 5.30.
With `CN(CCNC(=S)Nc1cccnc1Oc1ccc(F)cc1F)CCNc1cc(N2CCCC2)nc(N2CCCC2)n1` [Example 47, N-[2-(2,4-difluorophenoxy)pyridin-3-yl]-N′-{2-[{2-[(2,6-dipyrrolidin-1-ylpyrimidin-4-yl)amino]ethyl}(methyl)amino]ethyl}thiourea], the melting point is 108 to 110 °C. Further, the pIC50 in data set [1] was not below 6.00. In data set [2], the pIC50 was not below 5.30. Also, the pIC50 in data set [3] was not below 5.30.
As for `CN(CCNC(=S)Nc1ccc(-n2cccn2)cc1)CCNc1cc(N2CCCC2)nc(N2CCCC2)n1` [Example 48, N-{2-[{2-[(2,6-dipyrrolidin-1-ylpyrimidin-4-yl)amino]ethyl}(methyl)amino]ethyl}-N′-[4-(1H-pyrazol-1-yl)phenyl]thiourea], the melting point is 116 to 118 °C. Moreover, in data set [1], the pIC50 was not below 5.30. In data set [2], the pIC50 was not below 5.30. In addition, the pIC50 in data set [3] was not below 5.30.
The molecule `CN(CCNC(=S)Nc1ccc(Cl)nc1)CCNc1cc(N2CCCC2)nc(N2CCCC2)n1` [Example 53, N-(6-chloropyridin-3-yl)-N′-{2-[{2-[(2,6-dipyrrolidin-1-ylpyrimidin-4-yl)amino]ethyl}(methyl)amino]ethyl}thiourea] displayed a melting point of 96 to 98 °C. The pIC50 in data set [1] is not below 6.00. Besides, in data set [2], the pIC50 is not below 5.30. Also, the pIC50 in data set [3] is not below 5.30.
Turning to `CN(CCNC(=S)Nc1ccc(S(=O)(=O)c2ccc(Br)cc2)cc1)CCNc1cc(N2CCCC2)nc(N2CCCC2)n1` [Example 60, N-{4-[(4-bromophenyl)sulfonyl]phenyl}-N′-{2-[{2-[(2,6-dipyrrolidin-1-ylpyrimidin-4-yl)amino]ethyl}(methyl)amino]ethyl}thiourea], the melting point was 118 to 120 °C. Further, the pIC50 in data set [1] was not below 6.00. Also, the pIC50 in data set [2] is not below 5.30. Further, the pIC50 in data set [3] was not below 5.30.
Molecule `CN(CCNC(=S)Nc1ccc(S(=O)(=O)Nc2ccccc2)cc1)CCNc1cc(N2CCCC2)nc(N2CCCC2)n1` [Example 62, 4-{[({2-[{2-[(2,6-dipyrrolidin-1-ylpyrimidin-4-yl)amino]ethyl}(methyl)amino]ethyl}amino)carbonothioyl]amino}-N-phenylbenzenesulfonamide] displayed a melting point of 146 to 148 °C. Besides, the pIC50 in data set [1] was not below 6.00. In addition, the pIC50 in data set [2] was not below 5.30. Also, the pIC50 in data set [3] is not below 5.30.
Molecule `CN(CCNC(=S)Nc1ccc(Cl)cc1)CCNc1cc(N(C)C)nc(N(C)C)n1` [Example 73, N-{2-[(2-{[2,6-bis(dimethylamino)pyrimidin-4-yl]amino}ethyl)(methyl)amino]ethyl}-N′-(4-chlorophenyl)thiourea] came in with a melting point of 127 to 129 °C. The pIC50 in data set [1] was not below 5.30. Also, in data set [2], the pIC50 was not below 5.30. The pIC50 in data set [3] is not below 5.30.
`CN(CCNC(=S)Nc1ccc(Cl)cc1)CCNc1cc(N2CCC2)nc(N2CCC2)n1` [Example 75, N-(4-chlorophenyl)-N′-{2-[{2-[(2,6-diazetidin-1-ylpyrimidin-4-yl)amino]ethyl}(methyl)amino]ethyl}thiourea] gave a melting point of 146 to 148 °C. For the same molecule, the pIC50 in data set [2] is not below 5.30. For the same molecule, the pIC50 in data set [3] was not below 5.30.
`CN(CCNC(=S)Nc1ccc(N(C)C)cc1)CCNc1cc(N2CCCC2)nc(N2CCCC2)n1` [Example 76, N-[4-(dimethylamino)phenyl]-N′-{2-[{2-[(2,6-dipyrrolidin-1-ylpyrimidin-4-yl)amino]ethyl}(methyl)amino]ethyl}thiourea] came in with a melting point of 127 to 129 °C. Further, the pIC50 in data set [2] is not below 5.30. The pIC50 in data set [3] was not below 5.30.
Molecule `CN(CCNc1cc(N2CCCC2)nc(N2CCCC2)n1)CCNS(=O)(=O)c1cccc(C(F)(F)F)c1` [Example 88, N-{2-[{2-[(2,6-dipyrrolidin-1-ylpyrimidin-4-yl)amino]ethyl}(methyl)amino]ethyl}-3-(trifluoromethyl)benzenesulfonamide] returned a melting point of 203 to 205 °C. Further, the pIC50 in data set [1] is not below 5.30. Besides, the pIC50 in data set [2] is not below 5.30. The pIC50 in data set [3] is not below 5.30.
